Assay results published in patent publication US11787847B2, “Method of identifying malodor modulating compounds” (FIRMENICH SA, priority 2017, dated 2023).

Experiments:
Assay in all cases: cell-based dose-response, Ca2+ increase (Calcium 5 dye, FLIPR), HEK293T line stably expressing FLAG-Rho tagged receptor with human Gα15
[1] = biological target: T1, human receptor OR2L13 (Homo sapiens, UniProt Q8N349); conditions: FIG. 3, Example 3, SEQ ID NO: 26, stable HEK293T
T1 construct: The receptors were tagged with a FLAG®-Rho tag combination; expressed in transfected cells
T1 sequence (Q8N349 1-312): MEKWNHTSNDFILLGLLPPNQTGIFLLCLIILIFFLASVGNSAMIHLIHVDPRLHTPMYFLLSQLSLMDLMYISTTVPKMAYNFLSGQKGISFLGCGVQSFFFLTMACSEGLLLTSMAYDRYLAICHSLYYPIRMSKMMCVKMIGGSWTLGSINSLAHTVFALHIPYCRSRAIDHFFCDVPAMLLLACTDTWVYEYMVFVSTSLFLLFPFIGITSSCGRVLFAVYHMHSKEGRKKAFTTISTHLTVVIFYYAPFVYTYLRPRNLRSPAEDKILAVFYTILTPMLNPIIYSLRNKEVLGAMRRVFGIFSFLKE
Procedure: (§1) Functional dose-response experiments were performed to evaluate the level of DMTS activity of the modified cell lines expressing individual putative DMTS receptors. A cell line stably expressing a human receptor was generated in a HEK293T cell line for each of the following human receptors: OR2L13, OR4C15, OR5AC2, OR8H3, OR11G2 or OR52N2. The receptors were tagged with a FLAG®-Rho tag combination and stably co-expressed with the human G-protein alpha subunit Gals for the cell based assay. Co-expression of the human Gals activates the Gq transduction pathway that leads to an internal Ca^2+ increase upon binding to the appropriate ligand. Receptors were exposed to increasing concentrations of DMTS. Odorant-induced activity was detected by measuring the Ca^2+ increase in the cytosol using a calcium sensitive fluorescent dye (Molecular Devices, Calcium 5 dye, cat. R8186) and measuring the change in Relative Fluorescence Ratio (RFU) using a fluorometric imaging plate reader (Molecular Devices, FLIPR) following odorant exposure. […] A cell line lacking a receptor was used as a control for non-specific activity at high compound concentrations (‘No receptor’). The activity levels are reported by the potency of the DMTS induced-response for each receptor as a measure of the EC50 value.

[2] = biological target: T2, human receptor OR5AC2 (Homo sapiens, UniProt Q9NZP5); conditions: FIG. 3, Example 3, SEQ ID NO: 32, stable HEK293T
T2 construct: The receptors were tagged with a FLAG®-Rho tag combination; expressed in transfected cells
T2 sequence (Q9NZP5 1-309): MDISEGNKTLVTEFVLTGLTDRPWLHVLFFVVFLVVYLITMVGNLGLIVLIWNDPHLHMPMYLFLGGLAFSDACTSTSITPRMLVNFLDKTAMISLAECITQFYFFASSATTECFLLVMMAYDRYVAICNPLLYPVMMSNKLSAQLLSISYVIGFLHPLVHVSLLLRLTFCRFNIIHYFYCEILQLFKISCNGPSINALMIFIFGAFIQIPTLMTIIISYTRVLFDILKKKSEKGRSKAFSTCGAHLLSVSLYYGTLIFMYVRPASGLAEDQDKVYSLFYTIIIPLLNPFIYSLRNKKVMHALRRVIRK
Procedure: as §1

[3] = biological target: T3, human receptor OR11G2 (Homo sapiens, UniProt Q8NGC1); conditions: FIG. 3, Example 3, SEQ ID NO: 36, stable HEK293T
T3 construct: The receptors were tagged with a FLAG®-Rho tag combination; expressed in transfected cells
T3 sequence (Q8NGC1 35-345 limits assumed): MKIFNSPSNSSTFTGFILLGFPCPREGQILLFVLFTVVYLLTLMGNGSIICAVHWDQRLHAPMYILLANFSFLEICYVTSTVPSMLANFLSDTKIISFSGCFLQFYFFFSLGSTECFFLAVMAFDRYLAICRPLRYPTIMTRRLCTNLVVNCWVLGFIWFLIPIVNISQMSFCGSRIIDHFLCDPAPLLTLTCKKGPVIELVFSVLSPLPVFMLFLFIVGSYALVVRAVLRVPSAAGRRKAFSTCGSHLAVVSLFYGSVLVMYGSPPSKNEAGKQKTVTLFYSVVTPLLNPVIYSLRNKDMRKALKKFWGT
Procedure: as §1

[4] = biological target: T4, human receptor OR4C15 (Homo sapiens, UniProt Q8NGM1); conditions: FIG. 3, Example 3, SEQ ID NO: 30, stable HEK293T
T4 construct: The receptors were tagged with a FLAG®-Rho tag combination; expressed in transfected cells
Procedure: as §1

[5] = biological target: T5, human receptor OR52N2 (Homo sapiens, UniProt Q8NGI0); conditions: FIG. 3, Example 3, SEQ ID NO: 38, stable HEK293T
T5 construct: The receptors were tagged with a FLAG®-Rho tag combination; expressed in transfected cells
T5 sequence (Q8NGI0 1-321): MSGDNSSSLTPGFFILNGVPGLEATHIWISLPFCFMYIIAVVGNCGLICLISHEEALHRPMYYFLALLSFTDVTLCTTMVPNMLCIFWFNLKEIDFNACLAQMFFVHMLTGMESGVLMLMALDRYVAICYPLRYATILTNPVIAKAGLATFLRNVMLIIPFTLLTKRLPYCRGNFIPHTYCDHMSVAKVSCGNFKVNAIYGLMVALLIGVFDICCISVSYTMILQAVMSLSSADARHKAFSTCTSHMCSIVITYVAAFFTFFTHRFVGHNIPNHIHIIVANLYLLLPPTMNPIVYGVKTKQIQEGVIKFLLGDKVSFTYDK
Procedure: as §1

T4 sequence (Q8NGM1 with tags, fused parts or gaps): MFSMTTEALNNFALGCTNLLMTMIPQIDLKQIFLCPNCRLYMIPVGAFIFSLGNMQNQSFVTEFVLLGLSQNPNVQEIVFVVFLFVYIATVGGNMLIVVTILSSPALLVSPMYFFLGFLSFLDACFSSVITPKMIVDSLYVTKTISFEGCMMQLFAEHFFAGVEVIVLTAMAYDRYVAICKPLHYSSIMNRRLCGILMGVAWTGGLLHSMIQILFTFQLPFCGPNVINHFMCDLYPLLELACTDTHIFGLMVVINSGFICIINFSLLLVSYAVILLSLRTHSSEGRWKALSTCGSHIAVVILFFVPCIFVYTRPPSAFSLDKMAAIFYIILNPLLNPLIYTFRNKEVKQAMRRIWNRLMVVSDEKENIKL

- EC50 [1]: 59 µM
- EC50 [2]: 27 µM
- EC50 [3]: 12 µM
- EC50 [4]: 0.8 µM
- EC50 [5]: 5 µM
SMILES: CSSSC [DMTS, dimethyl trisulfide]
